Measured values as given in article PMC9040849 (RSC Advances, 2021).

How the values were obtained:
[1] = in vitro; conditions: human
[2] = system: influenza A/Puerto Rico/8/34 H1N1 (PR8) virus; assay: microbe, parasite or virus in culture; assay type: cell-based; conditions: for SI (selectivity index, ratio of the CC50 to the IC50): A549 cells, PR8; for IC50: Influenza A virus, H1N1|PR8, A549, 24 h

Cc1nc2c(=O)[nH]cnc2n1CC(=O)O [Compound 7a, 2-(8-Methyl-6-oxo-1,6-dihydro-9H-purin-9-yl)acetic acid]
CC50 [1]: 750 nM | SI (selectivity index, ratio of the CC50 to the IC50) [2]: 0.84 | IC50 [2]: 890 nM

Cc1nc(C#N)c(N)n1CC(=O)O [Compound 5a, 2-(5-Amino-4-cyano-2-methyl-1H-imidazol-1-yl)acetic acid]
CC50 [1]: 2200 nM | expression of HA on infected monolayers (RFU % vs untreated infected cells) [2]: decreased | IC50 [2]: 760 nM

COC(=O)C(C(C)C)n1c(C)nc2c(=O)[nH]cnc21 (stereo not shown) [Compound 6c, Methyl 3-methyl-2-(8-methyl-6-oxo-1,6-dihydro-9H-purin-9-yl)butanoate]
CC50 [1]: 310 nM | IC50 [2]: 180 nM

Cc1nc2c(=O)[nH]cnc2n1C(C(=O)O)C(C)C (stereo not shown) [Compound 7c, 3-Methyl-2-(8-methyl-6-oxo-1,6-dihydro-9H-purin-9-yl)butanoic acid]
CC50 [1]: 1090 nM | expression of HA on infected monolayers (RFU % vs untreated infected cells) [2]: decreased | IC50 [2]: 590 nM

COC(=O)Cn1c(C)nc(C#N)c1N [Compound 4a, Methyl 2-(5-amino-4-cyano-2-methyl-1H-imidazol-1-yl)acetate]
CC50 [1]: 1020 nM

COC(=O)C(Cc1ccccc1)n1c(C)nc(C#N)c1N (stereo not shown) [Compound 4e, Methyl 2-(5-amino-4-cyano-2-methyl-1H-imidazol-1-yl)-3-phenylpropanoate]
CC50 [1]: 840 nM | IC50 [2]: 390 nM

COC(=O)C(Cc1ccc(O)cc1)n1c(C)nc(C#N)c1N (stereo not shown) [Compound 4f, Methyl 2-(5-amino-4-cyano-2-methyl-1H-imidazol-1-yl)-3-(4-hydroxyphenyl)propanoate]
CC50 [1]: 1450 nM | SI (selectivity index, ratio of the CC50 to the IC50) [2]: 0.5 | IC50 [2]: 3200 nM

Cc1nc(C#N)c(N)n1C(C)C(=O)O (stereo not shown) [Compound 5b, 2-(5-Amino-4-cyano-2-methyl-1H-imidazol-1-yl)propanoic acid]
CC50 [1]: 2910 nM | SI (selectivity index, ratio of the CC50 to the IC50) [2]: 1 | IC50 [2]: 3000 nM

COC(=O)C(CO)n1c(C)nc2c(=O)[nH]cnc21 (stereo not shown) [Compound 6d, Methyl 3-hydroxy-2-(8-methyl-6-oxo-1,6-dihydro-9H-purin-9-yl)propanoate]
CC50 [1]: 930 nM

COC(=O)C(C)n1c(C)nc(C#N)c1N (stereo not shown) [Compound 4b, Methyl 2-(5-amino-4-cyano-2-methyl-1H-imidazol-1-yl)propanoate]
CC50 [1]: 2750 nM | IC50 [2]: 760 nM

COC(=O)C(CO)n1c(C)nc(C#N)c1N (stereo not shown) [Compound 4d, Methyl 2-(5-amino-4-cyano-2-methyl-1H-imidazol-1-yl)-3-hydroxypropanoate]
CC50 [1]: 1990 nM | IC50 [2]: 680 nM

Cc1nc(C#N)c(N)n1C(C(=O)O)C(C)C (stereo not shown) [Compound 5c, 2-(5-Amino-4-cyano-2-methyl-1H-imidazol-1-yl)-3-methylbutanoic acid]
CC50 [1]: 620 nM | SI (selectivity index, ratio of the CC50 to the IC50) [2]: 0.8 | IC50 [2]: 830 nM

COC(=O)C(Cc1ccccc1)n1c(C)nc2c(=O)[nH]cnc21 (stereo not shown) [Compound 6e, Methyl 2-(8-methyl-6-oxo-1,6-dihydro-9H-purin-9-yl)-3-phenylpropanoate]
CC50 [1]: 510 nM | SI (selectivity index, ratio of the CC50 to the IC50) [2]: 0.3 | IC50 [2]: 1870 nM

COC(=O)Cn1c(C)nc2c(=O)[nH]cnc21 [Compound 6a, Methyl 2-(8-methyl-6-oxo-1,6-dihydro-9H-purin-9-yl)acetate]
CC50 [1]: 2110 nM | SI (selectivity index, ratio of the CC50 to the IC50) [2]: 0.3 | IC50 [2]: 6960 nM

COC(=O)C(C(C)C)n1c(C)nc(C#N)c1N (stereo not shown) [Compound 4c, Methyl 2-(5-amino-4-cyano-2-methyl-1H-imidazol-1-yl)-3-methylbutanoate]
CC50 [1]: 1130 nM | SI (selectivity index, ratio of the CC50 to the IC50) [2]: 0.5 | IC50 [2]: 2410 nM

COC(=O)C(C)n1c(C)nc2c(=O)[nH]cnc21 (stereo not shown) [Compound 6b, Methyl 2-(8-methyl-6-oxo-1,6-dihydro-9H-purin-9-yl)propanoate]
CC50 [1]: 470 nM

Cc1nc2c(=O)[nH]cnc2n1C(C)C(=O)O (stereo not shown) [Compound 7b, 2-(8-Methyl-6-oxo-1,6-dihydro-9H-purin-9-yl)propanoic acid]
CC50 [1]: 2860 nM | IC50 [2]: 1850 nM

Cc1nc(C#N)c(N)n1C(Cc1ccccc1)C(=O)O (stereo not shown) [Compound 5e, 2-(5-Amino-4-cyano-2-methyl-1H-imidazol-1-yl)-3-phenylpropanoic acid]
CC50 [1]: 3360 nM | IC50 [2]: 460 nM

Cc1nc2c(=O)[nH]cnc2n1C(Cc1ccccc1)C(=O)O (stereo not shown) [Compound 7e, 2-(8-Methyl-6-oxo-1,6-dihydro-9H-purin-9-yl)-3-phenylpropanoic acid]
CC50 [1]: 6350 nM

Cc1nc(C#N)c(N)n1C(Cc1ccc(O)cc1)C(=O)O (stereo not shown) [Compound 5f, 2-(5-Amino-4-cyano-2-methyl-1H-imidazol-1-yl)-3-(4-hydroxyphenyl)propanoic acid]
CC50 [1]: 900 nM | SI (selectivity index, ratio of the CC50 to the IC50) [2]: 0.45 | IC50 [2]: 1990 nM

COC(=O)C(Cc1ccc(O)cc1)n1c(C)nc2c(=O)[nH]cnc21 (stereo not shown) [Compound 6f, Methyl 3-(4-hydroxyphenyl)-2-(8-methyl-6-oxo-1,6-dihydro-9H-purin-9-yl)propanoate]
CC50 [1]: 800 nM | IC50 [2]: 480 nM

Cc1nc2c(=O)[nH]cnc2n1C(CO)C(=O)O (stereo not shown) [Compound 7d, 3-Hydroxy-2-(8-methyl-6-oxo-1,6-dihydro-9H-purin-9-yl)propanoic acid]
CC50 [1]: 6110 nM
